What was measured:
XVir-N-31 [1] = assay: Hexon Titer test, particle formation of XVir-N-31 in UMUC-3 cells; format: cell-based, Mastadenovirus, Type C, Serotype 5
Description: The production of viral particles was analyzed via immunohistochemistry-staining of hexon proteins (Hexon Titer test). Therefor, 2×10^5 adherent HEK293 cells per well were seeded in 24-well plates. Cell cultures samples collected after indicated time-points post infection and indicated co-treatment with JQ-1 were pretreated with three cycles thaw-freeze to release viral particles from cells and then serially diluted. The HEK293 cells were infected in volumes of either 50 μl or 10 μl per sample. The plates were then incubated for 40 h at 37° C. and 10% CO2 before checking for detectable cytopathic effects. The medium was aspirated, and the plates were dried for 5-10 min before fixing the cells by adding ice-cold methanol for 10 min at −20° C. The wells were washed twice with PBS+1% BSA. The primary antibody (goat anti-hexon, 1:500) was added and the plates were incubated for 1 h at 37° C. before washing it twice with PBS+1% BSA. Next, the secondary antibody (Rabbit Anti-Goat HRP conjugate, 1:1000) was added and incubated for 1 h at 37° C. Again, the wells were washed twice with PBS containing 1% BSA before the DAB solution was added. After 30 min incubation, 10 different random fields of view (f.o.v.) per well were counted under the 20× objective of a microscope. Counting iterations were averaged and according to this formula, infectious particles per ml were calculated: […]

XVir-N-31 [2] = assay: XVir-N-31 replication in UMUC-3 cells, JQ-1 priming or concurrent treatment (fiber qPCR); format: cell-based, Mastadenovirus, Type C, Serotype 5; settings: UMUC-3, 10 MOI, 100 nM or 500 nM JQ-1, 24 hours post infection
Description: 2.5×10^4 UMUC-3 cells were seeded in 12 well plates in DMEM medium. The following day the cells were treated with JQ-1 (priming) or DMEM medium. At the next morning the cells were infected with 10 MOI XVir-N-31. One hour after infection DMEM Medium containing JQ-1 was added on the cells (concurrent treatment). After each 4 and 24 hours, the cells were washed once with PBS and 200 μl of SDS DNA Lysis Buffer was added. The cells were incubated with Proteinase K for at least 1 hour before undergoing a phenol-chloroform-isoamylalcohol purification. The DNA was diluted in 1×TE buffer and the concentration of the DNA was determined using a Nanodrop. For each sample a solution of 15 ng/μl was prepared and a RT-qPCR using 75 ng of DNA and a GoTaq Master mix. Specific fiber forward and reverse primers were used and for the calculation of the Δ ct value specific Actin primers were used as well. For each sample 3 Fiber and 3 Actin values were measured. The calculation was done in excel and each 24 hours value was calculated based on its 4 hours value (initial viral entry, before replication).

[3] = tested on: E1A, E1B55k, DBP, E40rf6 and Hexon; assay: Western blot of viral protein expression kinetics in UMUC-3 cells with JQ-1; format: cell-based, Mastadenovirus, Type C, Serotype 5; settings: UMUC-3, 10 MOI
Description: 1×10^6 UMUC-3 cells were seeded in 10 cm plates in DMEM medium and 24 hours post seeding infected with 10 MOI XVir-N-31. 1 hour post infection, culturing media was either refilled by DMEM or DMEM spiked with 500 nM JQ-1. 12, 24, 36 and 48 h.p.i, lysates of total proteins were taken using an SDS-buffer. BCA Assay was applied to adjust equivalent protein concentrations. Then, protein samples were supplemented with Lämmli buffer and separated via SDS-PA gelelectrophoresis on 10% PA-Gels. Samples were blotted onto PVDF membranes using a BioRAD Wet Tank System. These membranes were blocked with TBS-Tween buffer containing 5% Skim milk powder for 1 hour at room temperature. Incubation with primary antibodies was conducted over night at 4° C. and with HRP-conjugated secondary antibodies for 1 hour at room temperature. Chemiluminescence was detected using ECL prime (Pierce) with the ChemiDoc Imaging System (BioRad). Figures were designed in Adobe® Illustrator and evaluation was performed with ImageLab.

LN229 cells = assay: Western blot of XVir-N-31 infected LN229 cells, LEE011 and JQ1; format: cell-based
Description: 2.5×10^5 LN229 cells were seeded in 10 cm plates in DMEM medium. The following day the cells were treated with 500 nM LEE011 and 200 nM JQ1 or a combination of both. At the next morning the cells were infected with XVir-N-31 at 20 MOI. One hour after infection DMEM Medium containing the inhibitors was added on the cells. After each time point (24, 48, 72 hours) the cells were put on ice, washed twice with ice-cold PBS and 300 μl of SDS Protein Lysis Buffer was added. The cells were transferred to reaction tubes and the DNA sheared with a syringe and a needle and the supernatant transferred for further use after centrifugation. The protein concentration was measured with a BCA assay and samples with 4× Lämmli:DTT 6:1 and a concertation of 20 μg were produced and transferred to a 10% SDS gel. The gel electrophoresis started at 90V and was increased to 150V after the ladder started to separate. The proteins on the gel were blotted to a membrane for 2 hours at 100V and blocked in 5% milk in TBS-T for 1 hour at RT. After washing in TBS-T, the first antibody was added according to the manufacturer's information over night at 4° C. The used antibodies were directed to GAPDH, E1A, DBP, E2F1, Rb, pRb for all time points, and caspase 3 and the full length and cleaved version of PARP additionally for the 72 hours samples. The next day, the washing was repeated and the secondary antibody added for 1 hour at RT. Following the washing, ECL was used to image the chemiluminescence by the ChemiDoc™ MP Imaging System.

[4] = LN229, with XVir-N-31, 48 hours post infection
[5] = LN229, with XVir-N-31, 72 hours post infection

## Cc1sc2c(c1C)C(c1ccc(Cl)cc1)=N[C@@H](CC(=O)OC(C)(C)C)c1nnc(C)n1-2 [JQ-1, thieno-triazolo-1-4-diazepine]
XVir-N-31 [1]; 500 nM JQ-1, 39, 49, 62 or 72 hpi
  particle formation of XVir-N-31: significantly increased
XVir-N-31 [1]; concurrent treatment with 500 nM JQ-1
  kinetic of XVir-N-31's particle formation: highly accelerated
XVir-N-31 [2]
  XVir-N-31 replication, concurrent treatment with JQ-1: crucial for dual therapy success
  XVir-N-31 replication, priming with JQ-1: no beneficial effect
[3]; 500 nM JQ-1
  Hexon expression: expressed in high levels in early time-points
[3]; 500 nM JQ-1 concurrent, 12, 24, 36 and 48 h.p.i
  absolute viral protein expression and kinetic of XVir-N-31 viral proteins (E1A, E1B55k, DBP and E40rf6): highly accelerated
LN229 cells; LN229, XVir-N-31 MOI 20, 500 nM LEE011 or/and 200 nM JQ-1, 24 hours post infection
  viral proteins E1A and DBP: increased
LN229 cells; LN229, XVir-N-31 MOI 20, 500 nM LEE011 or/and 200 nM JQ-1, 48 hours post infection
  viral proteins E1A and DBP: increased
LN229 cells; LN229, XVir-N-31 MOI 20, 500 nM LEE011 or/and 200 nM JQ-1, 72 hours post infection
  viral proteins E1A and DBP: increased
LN229 cells; LN229, with XVir-N-31, 24 hours post infection
  cellular proteins Rb and pRb: remained inhibited
LN229 cells; [4]
  E2F-1: stabilized
  cellular proteins Rb and pRb: remained inhibited
LN229 cells; [5]
  E2F1: enhanced
  cellular protein Rb: decreased
LN229 cells; XVir-N-31 infected LN229 cells, 72 hours post infection
  presence of cleaved PARP: increased

— US20220354911A1, “TREATMENT OF TUMORS BY A COMBINATION OF AN ONCOLYTIC ADENOVIRUS, A CDK4/6 INHIBITOR AND A FURTHER THERAPEUTICALLY ACTIVE AGENT” (KLINIKUM RECHTS DER ISAR DER TECHNISCHEN UNIVERSITÄT MÜNCHEN, priority 2019, published 2022)
